EC50 and Relative cAMP EC50 data for 11 molecules are collected here from patent US20240270821A1, “GIP/GLP1/GCG TRI-RECEPTOR AGONISTS AND USES THEREOF” (priority 2023, published 2024).

Read-outs that look alike come from different tables or passages of the source. Starred links: 1 amine or outer side, 2 acyl side, 3 side chain; linkers in the order of their positions; H or OH if unused. Non-standard residues stand in square brackets, D forms with d. Groups on a side chain read outwards from the residue. *: point of attachment. C18 diacid = O=C(O)CCCCCCCCCCCCCCCCC(=O)*; αMePhe(2-F) = C[C@](N)(Cc1ccccc1F)C(=O)O; γGlu = O=C(O)[C@H](CCC(=O)[*:2])N[*:1]; αMe4Pal = C[C@](N)(Cc1ccncc1)C(=O)O; 4Pal = N[C@@H](Cc1ccncc1)C(=O)O; αMeL = CC(C)C[C@](C)(N)C(=O)O; Orn = NCCC[C@H](N)C(=O)O; Dab = NCC[C@H](N)C(=O)O; AEEA = NCCOCCOCC(=O)O; Aib = CC(C)(N)C(=O)O

Assay [1] deals with T1, hGIPR (Homo sapiens, UniProt P48546).
T1 sequence (P48546 22-466): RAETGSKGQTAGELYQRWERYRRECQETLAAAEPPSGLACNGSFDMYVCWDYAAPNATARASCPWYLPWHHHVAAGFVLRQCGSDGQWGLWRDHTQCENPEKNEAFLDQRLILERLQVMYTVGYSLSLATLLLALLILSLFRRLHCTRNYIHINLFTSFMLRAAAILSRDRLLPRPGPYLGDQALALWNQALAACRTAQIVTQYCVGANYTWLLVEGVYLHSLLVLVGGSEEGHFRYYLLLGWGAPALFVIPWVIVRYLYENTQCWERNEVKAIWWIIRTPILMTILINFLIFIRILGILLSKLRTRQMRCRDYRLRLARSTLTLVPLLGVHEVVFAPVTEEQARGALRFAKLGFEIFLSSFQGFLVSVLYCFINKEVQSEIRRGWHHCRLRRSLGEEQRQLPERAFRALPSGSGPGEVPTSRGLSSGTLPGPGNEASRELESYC
Nature of the assay: Functional cAMP activity in the presence of 1% HSA. In kind it is cell-based. The following applies: read-out: cAMP Rel EC50, hGIPR.

The target in a further assay is human GcgR (Homo sapiens, UniProt P47871). The experiment in a line: Functional cAMP activity in the presence of 1% HSA. In kind it is cell-based. To be noted: read-out: cAMP Rel EC50, hGcgR.
Sequence of human GcgR (P47871 26-477): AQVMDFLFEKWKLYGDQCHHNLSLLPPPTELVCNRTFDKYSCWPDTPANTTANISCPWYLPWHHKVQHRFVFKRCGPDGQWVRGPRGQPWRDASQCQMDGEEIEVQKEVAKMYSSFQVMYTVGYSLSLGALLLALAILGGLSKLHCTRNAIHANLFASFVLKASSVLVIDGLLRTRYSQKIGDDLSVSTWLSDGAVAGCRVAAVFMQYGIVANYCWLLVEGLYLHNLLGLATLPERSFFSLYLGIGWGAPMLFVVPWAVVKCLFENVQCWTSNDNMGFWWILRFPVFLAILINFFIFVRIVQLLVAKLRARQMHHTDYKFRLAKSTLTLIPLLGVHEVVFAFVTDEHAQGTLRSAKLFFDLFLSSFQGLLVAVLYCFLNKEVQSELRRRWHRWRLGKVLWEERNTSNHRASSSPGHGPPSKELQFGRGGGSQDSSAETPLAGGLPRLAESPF
Assay [2] concerns the target T1, hGIPR. Nature of the assay: Functional cAMP activation in the presence of 0.1% casein (no HSA). In kind it is cell-based. The following applies: read-out: Relative cAMP EC50, hGIPR.
Assay [3] addresses T2, hGLP-1R (Homo sapiens, UniProt P43220). The assay is described as above. Format: cell-based. To be noted: read-out: Relative cAMP EC50, hGLP-1R.
For another assay, the target named is hGcgR (Homo sapiens, UniProt P47871). The description is as above. Format: cell-based. The following applies: read-out: Relative cAMP EC50, hGcgR.
Sequence of hGcgR (P47871 26-477): as above
For assay [4], the target named is T2, hGLP-1R. Nature of the assay: cell-based or functional assay.
The target of assay [5] is T3, human GIP receptor (human) (UniProt P48546).
T3 sequence (looked up): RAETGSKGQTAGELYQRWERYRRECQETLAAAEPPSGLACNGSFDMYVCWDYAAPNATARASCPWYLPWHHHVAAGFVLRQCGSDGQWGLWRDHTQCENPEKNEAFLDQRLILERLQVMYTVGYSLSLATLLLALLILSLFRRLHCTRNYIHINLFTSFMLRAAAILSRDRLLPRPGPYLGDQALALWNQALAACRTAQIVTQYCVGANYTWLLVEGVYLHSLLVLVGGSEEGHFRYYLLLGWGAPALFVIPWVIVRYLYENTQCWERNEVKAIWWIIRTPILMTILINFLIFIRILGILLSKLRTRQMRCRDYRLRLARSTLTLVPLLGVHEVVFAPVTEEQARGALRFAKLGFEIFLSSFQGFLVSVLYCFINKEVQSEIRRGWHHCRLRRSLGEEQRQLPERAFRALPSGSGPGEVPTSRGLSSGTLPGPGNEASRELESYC
Nature of the assay: cell-based or functional assay.

The target of assay [6] is human glucagon receptor (human) (UniProt P47871). The experiment in a line: cell-based or functional assay.
Sequence of human glucagon receptor (human) (P47871 26-477): as the sequence (P47871 26-477) above
The mark [7] stands for this setting: in the presence of 0.1% casein (no HSA), geometric mean.
The mark [8] stands for this setting: HEK-293 clonal cell line, in the presence of 1% HSA, geometric mean of relative EC50.
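For Relative cAMP EC50, hGIPR in this document: intracellular cAMP rise after 30 min at 37 °C read by HTRF against a standard curve, scaled between buffer alone (0%) and top control ligand concentration (100%), four-parameter fit.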
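For Relative cAMP EC50, hGLP-1R in this document: intracellular cAMP rise after 30 min at 37 °C read by HTRF, normalized between buffer only (0%) and maximal control ligand (100%), four-parameter variable-slope fit.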
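For Relative cAMP EC50, hGcgR in this document: intracellular cAMP rise after 30 min at 37 °C, read by HTRF against a cAMP standard curve, scaled from buffer only (0%) to maximal control ligand response (100%).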

T2 sequence (P43220 24-463): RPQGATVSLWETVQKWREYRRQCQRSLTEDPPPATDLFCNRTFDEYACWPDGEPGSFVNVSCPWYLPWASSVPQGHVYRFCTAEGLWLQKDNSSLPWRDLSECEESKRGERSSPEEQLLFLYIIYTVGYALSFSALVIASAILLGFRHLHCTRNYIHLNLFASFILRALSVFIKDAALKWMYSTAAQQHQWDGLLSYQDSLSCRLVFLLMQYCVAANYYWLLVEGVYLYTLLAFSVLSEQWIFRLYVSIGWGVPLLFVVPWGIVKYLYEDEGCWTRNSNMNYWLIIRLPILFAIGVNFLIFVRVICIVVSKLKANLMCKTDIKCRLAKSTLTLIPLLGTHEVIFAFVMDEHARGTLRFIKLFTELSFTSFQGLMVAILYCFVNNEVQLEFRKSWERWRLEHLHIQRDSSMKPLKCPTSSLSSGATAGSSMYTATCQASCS

As to “H-Y[Aib]QGTFTSD[4Pal]SQ[αMeL]LD[Orn]K([γGlu-γGlu-C18 diacid])AQ[αMe4Pal]AFIEYLLAGGPSSGAPPPSGSEE-NH2 [Example 1056]”, the EC50 (usually the concentration giving half of the maximal effect) came out at 29.6 nM on hGIPR [1]; 1650 nM at human GcgR; 0.0929 nM at hGIPR [2] (setting [7]); 4.25 nM on hGLP-1R [3] (setting [7]); 3.98 nM on hGcgR (setting [7]).
For the molecule “H-Y[Aib]QGTFTSD[4Pal]S[Dab][αMeL]LDKK([AEEA-γGlu-C18 diacid])AQ[Aib]AFIEYLIE[Aib]GPSSGAPPPSGS-NH2 [Example 803]”, the EC50 at hGIPR [2] (setting [7]) was 0.232 nM; at hGLP-1R [3] (setting [7]) it was 2.02 nM; on hGcgR (setting [7]) it was 9.75 nM.
With “H-Y[Aib]QGTFTSDFS[Orn][αMeL]LD[Orn]K([γGlu-γGlu-C18 diacid])AQ[Aib]AFIE[αMe4Pal]LLAGGPSSGAPPPEGSEE-NH2 [Example 1053]”, the 50% effective concentration (EC50) came to 19.3 nM on hGIPR [1] (setting [8]); 3470 nM at human GcgR (setting [8]); 0.123 nM at hGIPR [2] (setting [7]); 6.2 nM at hGLP-1R [3] (setting [7]); 10.4 nM at hGcgR (setting [7]).
As to “H-Y[Aib]QGTFTSD[4Pal]S[Orn][αMeL]LD[Orn]K([Glu-γGlu-C18 diacid])AQ[αMe4Pal]AFIEYLIAGGPSSGAPPPSGSEE-NH2 [Example 1061]”, the EC50 on hGIPR [1] turned out to be 55.6 nM; at human GcgR it was 2910 nM; on hGIPR [2] (setting [7]), 0.656 nM; at hGLP-1R [3] (setting [7]), 4.56 nM; on hGcgR (setting [7]), 17.3 nM.
With `CC[C@H](C)[C@H](NC(=O)[C@H](CO)NC(=O)[C@H](Cc1ccc(O)cc1)NC(=O)[C@H](CC(=O)O)NC(=O)[C@H](CO)NC(=O)[C@@H](NC(=O)[C@H](Cc1ccccc1)NC(=O)[C@@H](NC(=O)CNC(=O)[C@H](CCC(=O)O)NC(=O)[C@H](C)NC(=O)[C@@H](N)Cc1ccc(O)cc1)[C@@H](C)O)[C@@H](C)CC)C(=O)N[C@@H](C)C(=O)N[C@@H](CCSC)C(=O)N[C@@H](CC(=O)O)C(=O)N[C@@H](CCCCN)C(=O)N[C@H](C(=O)N[C@@H](Cc1c[nH]cn1)C(=O)N[C@@H](CCC(N)=O)C(=O)N[C@@H](CCC(N)=O)C(=O)N[C@@H](CC(=O)O)C(=O)N[C@@H](Cc1ccccc1)C(=O)N[C@H](C(=O)N[C@@H](CC(N)=O)C(=O)N[C@@H](Cc1c[nH]c2ccccc12)C(=O)N[C@@H](CC(C)C)C(=O)N[C@@H](CC(C)C)C(=O)N[C@@H](C)C(=O)N[C@@H](CCC(N)=O)C(=O)N[C@@H](CCCCN)C(=O)NCC(=O)N[C@@H](CCCCN)C(=O)N[C@@H](CCCCN)C(=O)N[C@@H](CC(N)=O)C(=O)N[C@@H](CC(=O)O)C(=O)N[C@@H](Cc1c[nH]c2ccccc12)C(=O)N[C@@H](CCCCN)C(=O)N[C@@H](Cc1c[nH]cn1)C(=O)N[C@@H](CC(N)=O)C(=O)N[C@H](C(=O)N[C@H](C(=O)N[C@@H](CCC(N)=O)C(N)=O)[C@@H](C)O)[C@@H](C)CC)C(C)C)[C@@H](C)CC` [hGIP 1-42 amide], the EC50 is more than 9950 nM on human GcgR and more than 99.5 nM at hGcgR (setting [7]).
For “H-Y[Aib]QGTFTSD[4Pal]S[Orn][αMeL]LD[Orn]K([Glu-Glu-γGlu-C18 diacid])AQ[αMe4Pal]AFIEYLIAGGPSSGAPPPSGSEE-NH2 [Example 1062]”, the EC50 amounted to 67.5 nM on hGIPR [1]; 2380 nM at human GcgR; 0.726 nM on hGIPR [2] (setting [7]); 7.75 nM on hGLP-1R [3] (setting [7]); 8.77 nM at hGcgR (setting [7]).
The corresponding values for “H-Y[Aib]QGTFTSD[4Pal]S[Orn][αMeL]LD[Orn]K([γGlu-γGlu-C18 diacid])AQ[αMe4Pal]AFIEYLIAGGPSSGAPPPSGSEE-NH2 [Example 1059]” are 48.9 nM, 748 nM, 0.468 nM, 4.61 nM and 7.52 nM.
In the case of “H-Y[Aib]QGT[αMePhe(2-F)]TSD[4Pal]SILLDKK([γGlu-γGlu-C18 diacid])AQ[Aib]AFIEYLTEGGPSSGAPPPSGTE-NH2 [Example 554]”, the concentration giving a half-maximal response (EC50) came out at 4.08 nM at hGIPR [1]; 946 nM at human GcgR; 0.0323 nM at hGIPR [2]; 0.423 nM at hGLP-1R [3]; 6.83 nM at hGcgR.
With “H-Y[Aib]QGTFTSD[4Pal]SR[αMeL]LDKK([AEEA-γGlu-C18 diacid])AQ[Aib]AFIEYLIE[Aib]SPSSGAPPPSGS-NH2 [Example 807]”, the EC50 stood at 0.108 nM at hGIPR [2] (setting [7]), 1.72 nM on hGLP-1R [3] (setting [7]) and 12.4 nM at hGcgR (setting [7]).

B1: Example 1132 (peptide)
chain: YXQGTFTSDXXQXLDXKAQXQFIQXLIAXGPSSGAPPPSGGGE
modifications: not fully specified; Lys acylated γGlu-C18 diacid; non-natural residues; C-amide; synthetic construct; SITE 2: note = 2-Aminoisobutyric Acid; SITE 10: note = 3-(4-Pyridyl)-L-alanine; SITE 11: note = alpha-methyl-L-serine; SITE 13: note = alpha-methyl-leucine; SITE 16: note = L-ornithine; SITE 17: note = Lysine is chemically modified through conjugation of the epsilon-amino group
B1: the Relative cAMP EC50 was 0.681 nM with hGLP-1R [4], 0.0335 nM in assay [5] and 2.11 nM in assay [6].

B2: Example 1135 (peptide)
chain: YXQGTFTSDXXIXLDXKAQXQFIQXLIEXGPSSGAPPPSGGGE
modifications: not fully specified; N-methyl Tyr, non-natural residues, acylation, C-terminal amide; synthetic construct; SITE 1: note = N-methyl-tyrosine; SITE 2: note = 2-Aminoisobutyric Acid; SITE 10: note = 3-(4-Pyridyl)-L-alanine; SITE 11: note = alpha-methyl-L-serine; SITE 13: note = alpha-methyl-leucine; SITE 16: note = L-ornithine; SITE 17: note = Lysine is chemically modified through conju
As for B2, the Relative cAMP EC50 with hGLP-1R [4] amounted to 0.746 nM; in assay [5], 0.0126 nM; in assay [6], 1.76 nM.
